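Cells were grown in 96-well plates and exposed to each compound for 48 hours at five concentrations; endpoints were interpolated linearly between bracketing concentrations, or set to the highest concentration if not reached. The concentration for 50% growth inhibition is given as GI50. At the TGI there is no net growth.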
Key:
Experiment in all cases: DTP human tumour cell line panel, 48 h
[1] = tested on: RPMI-8226 leukemia
[2] = tested on: SF-268 CNS
[3] = tested on: HCC-2998 colon
[4] = tested on: SK-OV-3 ovarian
[5] = tested on: TK-10 renal
[6] = tested on: ACHN renal
[7] = tested on: EKVX NSCLC
[8] = tested on: SNB-19 CNS
[9] = tested on: KM12 colon
[10] = tested on: K-562 leukemia
[11] = tested on: OVCAR-3 ovarian
[12] = tested on: MDA-MB-231 breast
[13] = tested on: HOP-92 NSCLC
[14] = tested on: DU-145 prostate
[15] = tested on: U251 CNS
[16] = tested on: SF-295 CNS
[17] = tested on: SK-MEL-28 melanoma
[18] = tested on: CCRF-CEM leukemia
[19] = tested on: HT29 colon
[20] = tested on: NCI-H522 lung
[21] = tested on: NCI/ADR-RES ovarian
[22] = tested on: HL-60(TB) leukemia
[23] = tested on: SN12C renal
[24] = tested on: MDA-MB-435
[25] = tested on: CAKI-1 renal
[26] = tested on: MALME-3M melanoma
[27] = tested on: UO-31 renal
[28] = tested on: SK-MEL-2 melanoma
[29] = tested on: HOP-62 NSCLC
[30] = tested on: NCI-H460 lung
[31] = tested on: SNB-75 CNS
[32] = tested on: NCI-H23 lung
[33] = tested on: T-47D breast
[34] = tested on: COLO 205 colon
[35] = tested on: OVCAR-5 ovarian
[36] = tested on: MOLT-4 leukemia
[37] = tested on: SW-620 colon
[38] = tested on: UACC-62 melanoma
[39] = tested on: SF-539 CNS
[40] = tested on: OVCAR-4 ovarian
[41] = tested on: MCF7 breast
[42] = tested on: SK-MEL-5 melanoma
[43] = tested on: M14 melanoma
[44] = tested on: SR leukemia
[45] = tested on: NCI-H226 lung
[46] = tested on: IGROV1 ovarian
[47] = tested on: PC-3 prostate
[48] = tested on: A498 renal
[49] = tested on: A549 NSCLC
[50] = tested on: 786-0 renal
[51] = tested on: HS 578T breast
[52] = tested on: HCT-116 colon
[53] = tested on: LOX IMVI melanoma
[54] = tested on: HCT-15 colon

Compound: COC(=O)c1cc2c(cc1Cl)SC(N(N(C)C)S(=O)(=O)c1ccc(Cl)cc1)=NS2(=O)=O
- GI50 [1]: 17.1 µM
- TGI [1]: 53.4 µM
- GI50 [2]: 20.1 µM
- TGI [2]: 45.5 µM
- GI50 [3]: 16.1 µM
- TGI [3]: 32.7 µM
- GI50 [4]: 17.9 µM
- TGI [4]: 49.2 µM
- GI50 [5]: 19.2 µM
- TGI [5]: 53.3 µM
- GI50 [6]: 17.8 µM
- TGI [6]: 38.5 µM
- GI50 [7]: 17 µM
- TGI [7]: 33 µM
- GI50 [8]: 17.3 µM
- TGI [8]: 50.2 µM
- GI50 [9]: 13.8 µM
- TGI [9]: 27 µM
- GI50 [10]: 11.3 µM
- TGI [10]: 23.8 µM
- GI50 [11]: 13 µM
- TGI [11]: 37.8 µM
- GI50 [12]: 17.1 µM
- TGI [12]: 44 µM
- GI50 [13]: 14.5 µM
- TGI [13]: 30.9 µM
- GI50 [14]: 13.7 µM
- TGI [14]: 26.6 µM
- GI50 [15]: 17 µM
- TGI [15]: 44.8 µM
- GI50 [16]: 18 µM
- TGI [16]: 51.2 µM
- GI50 [17]: 15.9 µM
- TGI [17]: 29.3 µM
- GI50 [18]: 14.1 µM
- TGI [18]: 37.1 µM
- GI50 [19]: 16.1 µM
- TGI [19]: 31.9 µM
- GI50 [20]: 12.4 µM
- TGI [20]: 30.2 µM
- GI50 [21]: 15.2 µM
- TGI [21]: 39.9 µM
- GI50 [22]: 16.4 µM
- TGI [22]: 42.6 µM
- GI50 [23]: 19.2 µM
- TGI [23]: 47.7 µM
- GI50 [24]: 16.3 µM
- TGI [24]: 33.3 µM
- GI50 [25]: 21.3 µM
- TGI [25]: 46.1 µM
- GI50 [26]: 13.8 µM
- TGI [26]: 40 µM
- GI50 [27]: 25.3 µM
- TGI [27]: > 100 µM
- GI50 [28]: 20.5 µM
- TGI [28]: 59 µM
- GI50 [29]: 19.6 µM
- TGI [29]: 48.7 µM
- GI50 [30]: 18.7 µM
- TGI [30]: 37.4 µM
- GI50 [31]: 23.7 µM
- TGI [31]: 69.9 µM
- GI50 [32]: 19.7 µM
- TGI [32]: 43.5 µM
- GI50 [33]: 8.42 µM
- TGI [33]: 26.7 µM
- GI50 [34]: 13.4 µM
- TGI [34]: 29.8 µM
- GI50 [35]: 20.1 µM
- TGI [35]: 46.7 µM
- GI50 [36]: 11.8 µM
- TGI [36]: 27.5 µM
- GI50 [37]: 14.3 µM
- TGI [37]: 27.4 µM
- GI50 [38]: 17 µM
- TGI [38]: 35.6 µM
- GI50 [39]: 15.8 µM
- TGI [39]: 31.5 µM
- GI50 [40]: 18.1 µM
- TGI [40]: 54.8 µM
- GI50 [41]: 17 µM
- TGI [41]: 34.8 µM
- GI50 [42]: 14.6 µM
- TGI [42]: 27.7 µM
- GI50 [43]: 15.8 µM
- TGI [43]: 32 µM
- GI50 [44]: 19.8 µM
- TGI [44]: 40.9 µM
- GI50 [45]: 19.8 µM
- TGI [45]: 62 µM
- GI50 [46]: 22.5 µM
- TGI [46]: 73.6 µM
- GI50 [47]: 7.63 µM
- TGI [47]: 20.5 µM
- GI50 [48]: 15.1 µM
- TGI [48]: 30.1 µM
- GI50 [49]: 17.2 µM
- TGI [49]: > 100 µM
- GI50 [50]: 31.3 µM
- TGI [50]: > 100 µM
- GI50 [51]: 18.8 µM
- TGI [51]: 48.6 µM
- GI50 [52]: 15.6 µM
- TGI [52]: 29 µM
- GI50 [53]: 15 µM
- TGI [53]: 28.3 µM
- GI50 [54]: 14.1 µM
- TGI [54]: 27.1 µM

From PubChem BioAssay (NCI)
